One experiment addresses human TDO (Homo sapiens (Human), UniProt P48775). Briefly: Inhibition activity on human TDO (tryptophan 2,3-dioxygenase) (enzyme assay, absorbance at 480 nm). Type of experiment: biochemical. As to conditions: read-out: IC50 for inhibiting the activity of human TDO. As to the method:
Assay for Determining the Inhibition activity of the Compounds of the Present Invention on Human TDO (tryptophan 2,3-dioxygenase)
Human TDO activity was tested in vitro by the following method.
This method is used to determine the inhibition effect of the compounds of the present invention on the activity of human TDO.
Plasmids constructed with the human TDO gene were transferred to competent Escherichia coli Rosseta. The TDO gene was scaled-up by culturing in liquid LB (Luria-Bertani) medium [which was prepared per liter according to “Molecular Cloning A Laboratory Manual” (J. Sambrook, D. W. Russell)]). The bacteria were collected and lysed by ultrasonic waves. The purified TDO was obtained by eluting from a column.
For testing, 24 μL of enzyme (TDO) was diluted 100 times with 50 mM KPB to 2400 μL. The concentration of the enzyme solution was 2.6 ng/μL. A 96 well reaction plate (AXYGEN, PCR-96-FLT-C) (hereinafter referred to as the “reaction plate”) was added with the enzyme solution at 24 μL/well. The blank well was added with 24 μL of KPB [Preparation of KPB buffer (50 mM): 6.805 g of KH2PO4 was weighed using an analytical balance, and placed into a 1000 mL beaker, deionized water was added with a measuring cylinder to 900 mL, the pH was adjusted to 6.5 by 1M KOH, then the mixture was introduced into a 1 L measuring cylinder, and water was added to 1 L. It was stored at 4° C.]. Then, 1 μL of a compound or DMSO was added into the corresponding wells in the reaction plate. Preparation of solution A: 200 μL of 500 mM L-sodium ascorbate was added with 1050 μL of KPB, then the mixture was mixed uniformly for 3 seconds at the maximum speed in a turbine mixer. Solution B: 100 μL of 10 mM tryptophan was added with 100 μL of 100,000 unit/ml catalase, 5 μL of 10 mM methylene blue, and 1050 μL of KPB successively, then the mixture was mixed uniformly for 3 seconds at the maximum speed in a turbine mixer. Then, 1200 μL of solution A and 1200 μL of solution B were taken and mixed uniformly for 3 seconds at the maximum speed in a turbine mixer. The mixture was added to the reaction plate at 24 μL/well. The reaction plate was placed in a plate centrifuge and centrifuged for 15 seconds at the maximum speed, so that the reaction liquids converged to the bottom. The reaction mixture was mixed uniformly for 30 seconds on a shaker, and incubated for 1 hour at 37° C. in a constant temperature incubator. In the reaction plate, 30% (W/V) trichloroacetic acid was added at 10 μL/well, then the mixture was incubated for 15 minutes at 65° C. in a incubator. The reaction plate was centrifuged in a centrifuge for 5 minutes at 4700 RPM at room temperature. […] Then, 2% (W/V) 4-(dimethylamino)benzaldehyde/glacial acetic acid solution was added at 40 μL/well, then the mixture was mixed uniformly for 1 minute on a shaker at the maximum speed. After incubation for 2 minutes at room temperature, the absorbance at 480 nm was read on a Synergy HT Reader.
The inhibition activity of the compounds of the present invention on human TDO was tested by the assay described above.

In another experiment the target is human IDO1 (Homo sapiens (Human), UniProt P14902). The experiment can be described thus: Inhibition activity on human IDO1 (enzyme assay, absorbance at 480 nm). As to conditions: read-out: IC50 for inhibiting the activity of human IDO1. Format: biochemical. As to the method: Assay for Determining the Inhibition Activity of the Present Compounds on Human IDO1
human IDO1, sequence (P14902 whole entry): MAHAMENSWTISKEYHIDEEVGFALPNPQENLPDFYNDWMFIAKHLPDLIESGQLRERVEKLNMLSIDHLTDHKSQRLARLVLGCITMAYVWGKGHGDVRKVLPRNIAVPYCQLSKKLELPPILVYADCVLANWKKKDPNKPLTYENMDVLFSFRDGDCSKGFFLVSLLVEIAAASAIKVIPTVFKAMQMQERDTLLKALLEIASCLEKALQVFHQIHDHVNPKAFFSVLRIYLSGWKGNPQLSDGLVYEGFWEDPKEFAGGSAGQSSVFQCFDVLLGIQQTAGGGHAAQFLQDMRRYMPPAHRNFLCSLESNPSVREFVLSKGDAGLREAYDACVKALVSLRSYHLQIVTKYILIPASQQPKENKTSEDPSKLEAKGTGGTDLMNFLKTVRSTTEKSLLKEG
Human IDO1 activity was tested in vitro by the following method.
This method is used to determine the inhibition effect of the compounds of the present invention on the activity of human IDO1.
The human IDO1 gene was transferred to Pet30a plasmid by gene cloning, and then transferred to competent Escherichia coli Rosseta. The IDO1 gene was scaled-up by culturing in liquid LB (Luria-Bertani) medium [which was prepared per liter according to “Molecular Cloning A Laboratory Manual” (J. Sambrook, D. W. Russell)]). The bacteria were collected and lysed by ultrasonic waves. The purified IDO1 was obtained by eluting from a column.
For testing, 24 μL of enzyme (IDO1) was diluted 100 times with 50 mM KPB to 2400 μL. The concentration of the enzyme solution was 2.6 ng/μL. A 96 well reaction plate (AXYGEN, PCR-96-FLT-C) (hereinafter referred to as the “reaction plate”) was added with the enzyme solution at 24 μL/well. The blank well was added with 24 μL of KPB [Preparation of KPB buffer (50 mM): 6.805 g of KH2PO4 was weighed using an analytical balance, and placed into a 1000 mL beaker, deionized water was added with a measuring cylinder to 900 ml, the pH was adjusted to 6.5 by 1M KOH, then the mixture was introduced into a 1 L measuring cylinder, and water was added to 1 L. It was stored at 4° C.]. Then, 1 μL of a compound or DMSO was added into the corresponding wells in the reaction plate. Preparation of solution A: 200 μL of 500 mM L-sodium ascorbate were added with 1050 μL of KPB, then the mixture was mixed uniformly for 3 seconds at the maximum speed in a turbine mixer. Solution B: 100 μL of 10 mM tryptophan were added with 100 μL of 100,000 unit/mL catalase, 5 μL of 10 mM methylene blue, and 1050 μL of KPB successively, then the mixture was mixed uniformly for 3 seconds at the maximum speed in a turbine mixer. Then, 1200 μL of solution A and 1200 μL of solution B were taken and mixed uniformly for 3 seconds at the maximum speed in a turbine mixer. The mixture was added to the reaction plate at 24 μL/well. The reaction plate was placed in a plate centrifuge and centrifuged for 15 seconds at the maximum speed, so that the reaction liquids converged to the bottom. The reaction mixture was mixed uniformly for 30 seconds on a shaker, and incubated for 1 hour at 37° C. in a constant temperature incubator. In the reaction plate, 30% (W/V) trichloroacetic acid was added at 10 μL/well, then the mixture was incubated for 15 minutes at 65° C. in an incubator. The reaction plate was centrifuged in a centrifuge for 5 minutes at 4700 RPM at room temperature. […] Then, 2% (W/V) 4-(dimethylamino)benzaldehyde/glacial acetic acid solution was added at 40 μL/well, and the mixture was mixed uniformly for 1 minute on a shaker at the maximum speed. After incubation for 2 minutes at room temperature, the absorbance at 480 nm was read on a Synergy HT (BIOTEK) reader.
The inhibition activity of the compounds of the present invention on human IDO1 was tested by the assay described above.

The next experiment has as its target IDO in HeLa cells (Homo sapiens (Human), UniProt P14902). Briefly: Inhibition activity on IDO in HeLa cells (INF-γ induced). Format: cell-based. Particulars: read-out: IC50 for inhibiting the activity of IDO in HeLa cells. The method, then: Assay for Determining the Inhibition Activity of the Present Compounds on IDO in HeLa Cells
IDO activity in HeLa cells was tested in vitro by the following method.
This method is used to determine the inhibition effect of the compounds of the present invention on the activity of IDO in HeLa cells. (Note: indoleamine 2,3-dioxygenase (IDO) is expressed in the HeLa cell line and induced by interferon gamma (INF-γ)).
The supernatant was removed, serum-free DMEM high glucose medium was added at 90 μL/well, then the compounds contained in the culture medium with INF-γ and tryptophan were added at 10 μL/well (the final concentrations: 10000, 1000, 100, 10, 1, 0.1 nM). […] Then, 80 μL of the supernate was transferred from the 96-well cell culture plate to a 96 well round-bottomed plate, then 30% (W/V) trichloroacetic acid was added at 16 μL/well, then the mixture was incubated for 25 minutes at 65° C. in an incubator. The reaction plate was centrifuged in a centrifuge for 5 minutes at 4700 RPM. Then, 50 μL of the supernatant was transferred from the reaction plate to a 96-well flat-bottomed transparent plate by a multi-channel pipette. Then, 2% (W/V) 4-(dimethylamino)benzaldehyde/glacial acetic acid solution was added at 50 μL/well, then the mixture was mixed uniformly for 1 minute on a shaker. After incubation for 2 minutes at room temperature, the absorbance at 480 nm was read on a Synergy HT Reader.
The inhibition activity of the compounds of the present invention on IDO in HeLa cells was tested by the assay described above.

Where [1] appears, read: purified recombinant human IDO1, 1 hour at 37° C.
[2] abbreviates: purified recombinant human TDO, 1 hour at 37° C.
[3] abbreviates: HeLa cells, INF-γ and tryptophan, 48 hours.

Structures are written as SMILES. Counter-ions that a name gives are not always drawn. Like-named read-outs stand apart in the source and are kept apart here.

human TDO, sequence (P48775 whole entry): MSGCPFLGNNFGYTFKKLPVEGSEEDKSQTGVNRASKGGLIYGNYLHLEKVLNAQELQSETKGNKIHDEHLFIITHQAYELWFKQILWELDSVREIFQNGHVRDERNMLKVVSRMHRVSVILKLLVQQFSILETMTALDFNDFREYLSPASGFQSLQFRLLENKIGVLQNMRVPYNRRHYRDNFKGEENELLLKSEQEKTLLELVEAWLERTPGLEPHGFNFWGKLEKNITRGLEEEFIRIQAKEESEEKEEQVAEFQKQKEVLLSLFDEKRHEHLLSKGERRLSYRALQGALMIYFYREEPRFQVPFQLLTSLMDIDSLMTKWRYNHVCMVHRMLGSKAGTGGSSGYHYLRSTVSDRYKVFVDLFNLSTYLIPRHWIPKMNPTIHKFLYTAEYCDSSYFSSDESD
IDO in HeLa cells, sequence (P14902 whole entry): as the sequence (P14902 whole entry) above

Turning to `NC(=O)c1ccc(N2CCC(C3c4c(F)cccc4-c4cncn43)CC2)cc1` (centres unmarked) [Example 6, 4-(4-(6-fluoro-5H-imidazo[5,1-a]isoindol-5-yl)piperidin-1-yl)benzamide trifluoroacetate], the IC50 (as a rule, the concentration needed to halve the response being measured) at human TDO worked out at 394 nM.

`OC[C@H](O)Cn1cc(-c2ccc(N3CCC(C4c5c(F)cccc5-c5cncn54)CC3)cc2)cn1` (stereo partly drawn) [Example 30, (2R)-3-(4-(4-(4-(6-fluoro-5H-imidazo[5,1-a]isoindol-5-yl)piperidin-1-yl)phenyl)-1H-pyrazol-1-yl)propane-1,2-diol trifluoroacetate]: the IC50 at human IDO1 (setting [1]) was found to be 58.7 nM; at human TDO (setting [2]), 319 nM; at IDO in HeLa cells (setting [3]), 334 nM.

In the case of `Fc1cccc2c1C(C1CCN(c3ncc(-c4cnn(C5CCOCC5)c4)cn3)CC1)n1cncc1-2` (centres unmarked) [Example 18, 6-fluoro-5-(1-(5-(1-(tetrahydro-2H-pyran-4-yl)-1H-pyrazol-4-yl)pyrimidin-2-yl)piperidin-4-yl)-5H-imidazo[5,1-a]isoindole], the IC50 came to 34 nM at human IDO1 (setting [1]), 361 nM at human TDO (setting [2]) and 198 nM on IDO in HeLa cells (setting [3]).

Regarding `Fc1ccc(N2CCC(C3c4c(F)cccc4-c4cncn43)CC2)cc1F` (centres unmarked) [Example 46, 5-(1-(3,4-difluorophenyl)piperidin-4-yl)-6-fluoro-5H-imidazo[5,1-a]isoindole], the IC50 at human IDO1 turned out to be 6.68 nM; at human TDO it was 68.9 nM; at IDO in HeLa cells (setting [3]), 69.1 nM.

Consider `Fc1cccc2c1C(C1CCN(c3ccccc3)CC1)n1cncc1-2` (centres unmarked) [Example 1, 6-fluoro-5-(1-phenylpiperidin-4-yl)-5H-imidazo[5,1-a]isoindole trifluoroacetate], for which the IC50 was 87.4 nM at human IDO1 and 338 nM at human TDO.

Consider `Fc1cccc2c1C(C1CCN(c3ncc(-c4ccccc4)s3)CC1)n1cncc1-2` (centres unmarked) [Example 23, 2-(4-(6-fluoro-5H-imidazo[5,1-a]isoindol-5-yl)piperidin-1-yl)-5-phenylthiazole trifluoroacetate], for which the IC50 worked out at 48.2 nM at human IDO1 (setting [1]), 399 nM at human TDO (setting [2]) and 439 nM on IDO in HeLa cells (setting [3]).

Consider `N#Cc1ccc(N2CCC(C3c4c(F)cccc4-c4cncn43)CC2)cc1F` (centres unmarked) [Example 45, 2-fluoro-4-(4-(6-fluoro-5H-imidazo[5,1-a]isoindol-5-yl)piperidin-1-yl)benzonitrile], for which the figures for the IC50 on human IDO1 (setting [1]), at human TDO (setting [2]) and on IDO in HeLa cells (setting [3]) were 8.84 nM, 234 nM and 231 nM, respectively.

Consider `N#Cc1ccc(N2CCC(C3c4c(F)cccc4-c4cncn43)CC2)cc1` (centres unmarked) [Example 5, 4-(4-(6-fluoro-5H-imidazo[5,1-a]isoindol-5-yl)piperidin-1-yl)benzonitrile trifluoroacetate], for which the IC50 at human IDO1 worked out at 81.2 nM; on human TDO it was 394 nM; on IDO in HeLa cells, 353 nM.

`CS(=O)(=O)N1CCC(Oc2ccc(N3CCC(C4c5c(F)cccc5-c5cncn54)CC3)cc2)CC1` (centres unmarked) [Example 39, 6-fluoro-5-(1-(4-((1-(methylsulfonyl)piperidin-4-yl)oxy)phenyl)piperidin-4-yl)-5H-imidazo[5,1-a]isoindole]: the IC50 is 15.5 nM on human IDO1 (setting [1]), 243 nM on human TDO (setting [2]) and 198 nM on IDO in HeLa cells (setting [3]).

For the compound `Fc1cccc2c1C(C1CCN(c3ccccc3)C1)n1cncc1-2` (centres unmarked) [Example 25, 6-fluoro-5-(1-phenylpyrrolidin-3-yl)-5H-imidazo[5,1-a]isoindole trifluoroacetate], the IC50 on human TDO was 257 nM.

Regarding `Fc1ccc2c(c1)C(C1CCN(c3ccccc3)CC1)n1cncc1-2` (centres unmarked) [Example 2, 7-fluoro-5-(1-phenylpiperidin-4-yl)-5H-imidazo[5,1-a]isoindole trifluoroacetate], the 50% inhibitory concentration (IC50) on human TDO is 215 nM.

Regarding `OC[C@@H](O)Cn1cc(-c2ccc(N3CCC(C4c5c(F)cccc5-c5cncn54)CC3)cc2)cn1` (stereo partly drawn) [Example 29, (2S)-3-(4-(4-(4-(6-fluoro-5H-imidazo[5,1-a]isoindol-5-yl)piperidin-1-yl)phenyl)-1H-pyrazol-1-yl)propane-1,2-diol], the values for the IC50 on human IDO1 (setting [1]), on human TDO (setting [2]) and at IDO in HeLa cells (setting [3]) were 35.9 nM, 220 nM and 292 nM, respectively.

On to `Nc1cc(-c2nnc(N3CCC(C4c5c(F)cccc5-c5cncn54)CC3)s2)ccn1` (centres unmarked) [Example 36, 4-(5-(4-(6-fluoro-5H-imidazo[5,1-a]isoindol-5-yl)piperidin-1-yl)-1,3,4-thiadiazol-2-yl)pyridin-2-amine trifluoroacetate], for which the IC50 on human IDO1 (setting [1]) came out at 10.6 nM; on human TDO (setting [2]), 104 nM; on IDO in HeLa cells (setting [3]) it was 27.8 nM.

The record behind these values is patent US10899764B2, “Imidazo isoindole derivative, preparation method therefor and medical use thereof” (Jiangsu Hengrui Medicine Co., Ltd., priority 2015, dated 2021).
